Read-outs that look alike come from different tables or passages of the source.
Key:
HCT116 cells = assay: Cell viability assay (MTT) in HCT116 cell line; assay type: cell-based; conditions: Homo sapiens, HCT-116, 72 hrs, IC50 range, read-out: HCT116 cell growth inhibition
Procedure: Cell Viability Assay: Determination of IC50 of Aurora Inhibitors in HCT116 Cell Line Using MTT Assay. The effects of compounds of the Examples on cellular proliferation were determined using the MTT assay according to manufacturer's instructions (Sigma). Briefly, the human colon tumour cells HCT116, were seeded in triplicate into 96-well plates at 2500 cells/well 24 hours before treatment with a range of concentrations of Aurora inhibitors (0-50 μM). After 72 hrs, 15 μl/well of 0.5% 3-(4,5-dimethylthiazol-2-yl)-2,5-diphenyltetrazolium bromide (MTT) was added to the cells for 4 hrs at 37° C., the dye-stained viable cells were extracted by adding 150 μl/well of dimethyl sulphoxide (DMSO). […] The IC50 was calculated using the Prism software.

Aurora-A = target: T1, Aurora-A (Homo sapiens, UniProt O14965); assay: Flashplate Aurora A enzyme inhibition assay; assay type: biochemical; conditions: read-out: Aurora-A inhibition
T1 sequence (O14965 1-403): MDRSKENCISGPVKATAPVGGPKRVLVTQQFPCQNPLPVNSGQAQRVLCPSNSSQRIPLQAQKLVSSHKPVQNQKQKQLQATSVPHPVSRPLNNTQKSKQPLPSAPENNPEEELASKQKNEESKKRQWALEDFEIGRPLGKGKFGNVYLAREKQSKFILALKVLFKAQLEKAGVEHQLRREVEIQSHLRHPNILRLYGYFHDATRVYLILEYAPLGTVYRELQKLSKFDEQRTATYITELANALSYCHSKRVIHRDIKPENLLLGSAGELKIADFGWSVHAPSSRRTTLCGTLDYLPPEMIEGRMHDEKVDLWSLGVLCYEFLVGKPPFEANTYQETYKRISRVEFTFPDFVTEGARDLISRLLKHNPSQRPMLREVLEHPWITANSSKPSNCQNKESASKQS
Procedure: Flashplate® Assay for Identification and Evaluation of Aurora-A Inhibitors
On this assay 384-well Basic Flashplate® (SMP400E, PerkinElmer) as solid assay platform was used. The plates were coated overnight at 4° C. with […] at 100 μg/ml in PBS buffer and used after being washed twice with PBS. 5 μl of compound in 2% DMSO was added to each well followed by 15 μl master mix of kinase buffer (50 mM Tris pH 7.5, 10 mM NaCl, 2.5 mM MgCl2, 1 mM […], 20 μM ATP, and 0.025 μCi/μl ^33P-ATP). Finally, 250 ng per well of Aurora-A enzyme was added. The plate was shaken for approximately 2 min on a flat-bed plate shaker (Wellmix, Denley, UK) and incubated for 2 hours at room temperature. The reaction was stopped by washing the plate twice on a 16-pin wash (ELX50 BioTek Instruments Ltd., Northstar, Bedford, UK) with 10 mM sodium pyrophosphate. The plate was then read on a TopCount-NX™ (PerkinElmer Life Sciences UK Ltd., Hounslow, UK).

`NC(=O)C1CC1c1nc2c(N3CCN(CC(=O)Nc4nccs4)CC3)c(Br)cnc2[nH]1` (centres unmarked) [Example 46, 2-(6-Bromo-7-(4-(2-oxo-2-(thiazol-2-ylamino)ethyl)piperazin-1-yl)-3H-imidazo[4,5-b]pyridin-2-yl)cyclopropanecarboxamide] was tested, and the IC50 (HCT116 cells) was 2000 to 50000 nM and the IC50 (Aurora-A; Flashplate assay, IC50 range) was 500 to 2000 nM.

With `COc1cccc(-c2nc3c(N4CCN(CC(=O)Nc5nccs5)CC4)c(Br)cnc3[nH]2)c1` [Example 29] the IC50 (HCT116 cells) was 500 to 2000 nM and the IC50 (Aurora-A; Flashplate assay, IC50 range) was less than 500 nM.

Molecule `Brc1cnc2[nH]c(-c3ccc(Cn4cccn4)cc3)nc2c1N1CCN(Cc2ccncc2)CC1` [Example 78, 2-(4-((1H-Pyrazol-1-yl)methyl)phenyl)-6-bromo-7-(4-(pyridin-4-ylmethyl)piperazin-1-yl)-3H-imidazo[4,5-b]pyridine] has an IC50 (HCT116 cells) of less than 500 nM and an IC50 (Aurora-A; Flashplate assay, IC50 range) of less than 500 nM.

Molecule `Brc1cnc2[nH]c(-c3ccc(CN4CCOCC4)cc3)nc2c1N1CCN(Cc2cccc3c2OCO3)CC1` [Example 120, 4-(4-(7-(4-(Benzo[d][1,3]dioxol-4-ylmethyl)piperazin-1-yl)-6-bromo-3H-imidazo[4,5-b]pyridin-2-yl)benzyl)morpholine] has an IC50 (HCT116 cells) of 2000 to 50000 nM and an IC50 (Aurora-A; Flashplate assay, IC50 range) of less than 500 nM.

Work on `OC1CCN(c2ccc(-c3nc4c(N5CCN(Cc6cccnc6)CC5)c(Br)cnc4[nH]3)cc2)CC1` [Example 114, 1-(4-(6-Bromo-7-(4-(pyridin-3-ylmethyl)piperazin-1-yl)-3H-imidazo[4,5-b]pyridin-2-yl)phenyl)piperidin-4-ol] yielded an IC50 (HCT116 cells) of less than 500 nM and an IC50 (Aurora-A; Flashplate assay, IC50 range) of less than 500 nM.

`NCCc1nc2c(N3CCN(Cc4cccnc4)CC3)c(Br)cnc2[nH]1` [Example 98, 2-(6-Bromo-7-(4-(pyridin-3-ylmethyl)piperazin-1-yl)-3H-imidazo[4,5-b]pyridin-2-yl)ethanamine] was tested, and the IC50 (HCT116 cells) was 2000 to 50000 nM and the IC50 (Aurora-A; Flashplate assay, IC50 range) was 2000 to 10000 nM.

`Cc1csc(NC(=O)CN2CCN(c3c(Cl)cnc4[nH]c(-c5ccc(N(C)C)cc5)nc34)CC2)n1` [Example 23, 2-(4-(6-Chloro-2-(4-(dimethylamino)phenyl)-3H-imidazo[4,5-b]pyridin-7-yl)piperazin-1-yl)-N-(4-methylthiazol-2-yl)acetamide] was tested, and the IC50 (HCT116 cells) was 500 to 2000 nM and the IC50 (Aurora-A; Flashplate assay, IC50 range) was less than 500 nM.

`Brc1cnc2[nH]c(-c3ccc(CN4CCNCC4)cc3)nc2c1N1CCN(Cc2cscn2)CC1` [Example 179, 4-((4-(6-Bromo-2-(4-(piperazin-1-ylmethyl)phenyl)-3H-imidazo[4,5-b]pyridin-7-yl)piperazin-1-yl)methyl)thiazole] gave an IC50 (HCT116 cells) of 500 to 2000 nM and an IC50 (Aurora-A; Flashplate assay, IC50 range) of less than 500 nM.

In the case of `Brc1cnc2[nH]c(-c3ccc(OCCN4CCOCC4)cc3)nc2c1N1CCN(Cc2cccnc2)CC1` [Example 112, 4-(2-(4-(6-Bromo-7-(4-(pyridin-3-ylmethyl)piperazin-1-yl)-3H-imidazo[4,5-b]pyridin-2-yl)phenoxy)ethyl)morpholine], the IC50 (HCT116 cells) is reported as 500 to 2000 nM and the IC50 (Aurora-A; Flashplate assay, IC50 range) is reported as less than 500 nM.

Molecule `Cn1cncc1CN1CCN(c2c(Br)cnc3[nH]c(-c4ccc(CN5CCOCC5)cc4)nc23)CC1` [Example 169, 4-(4-(6-Bromo-7-(4-((1-methyl-1H-imidazol-5-yl)methyl)piperazin-1-yl)-3H-imidazo[4,5-b]pyridin-2-yl)benzyl)morpholine] has an IC50 (HCT116 cells) of 500 to 2000 nM and an IC50 (Aurora-A; Flashplate assay, IC50 range) of less than 500 nM.

For `CC(C)c1nc(CN2CCN(c3c(Br)cnc4[nH]c(-c5ccc(CN6CCOCC6)cc5)nc34)CC2)cs1` [Example 155, 4-(4-(6-Bromo-7-(4-((2-isopropylthiazol-4-yl)methyl)piperazin-1-yl)-3H-imidazo[4,5-b]pyridin-2-yl)benzyl)morpholine], the IC50 (HCT116 cells) was 2000 to 50000 nM and the IC50 (Aurora-A; Flashplate assay, IC50 range) was less than 500 nM.

With `Brc1cnc2[nH]c(-c3ccc(CN4CCOCC4)cc3)nc2c1N1CCN(CC2CCC2)CC1` [Example 150, 4-(4-(6-Bromo-7-(4-(cyclobutylmethyl)piperazin-1-yl)-3H-imidazo[4,5-b]pyridin-2-yl)benzyl)morpholine] the IC50 (HCT116 cells) was less than 500 nM and the IC50 (Aurora-A; Flashplate assay, IC50 range) was less than 500 nM.

Work on `COc1ccc(-c2nc3c(N4CCN(C(C)c5ccncc5)CC4)c(Cl)cnc3[nH]2)cc1` (centres unmarked) [Example 142, 6-Chloro-2-(4-methoxyphenyl)-7-(4-(1-(pyridin-4-yl)ethyl)piperazin-1-yl)-3H-imidazo[4,5-b]pyridine] yielded an IC50 (HCT116 cells) of less than 500 nM and an IC50 (Aurora-A; Flashplate assay, IC50 range) of less than 500 nM.

`Cc1nc(CN2CCN(c3c(Br)cnc4[nH]c(-c5ccc(-n6cccn6)cc5)nc34)CC2)cs1` [Example 161, 4-((4-(2-(4-(1H-Pyrazol-1-yl)phenyl)-6-bromo-3H-imidazo[4,5-b]pyridin-7-yl)piperazin-1-yl)methyl)-2-methylthiazole] showed an IC50 (HCT116 cells) of 2000 to 50000 nM and an IC50 (Aurora-A; Flashplate assay, IC50 range) of less than 500 nM.

For `Brc1cnc2[nH]c(-c3ccc(CN4CCOCC4)cc3)nc2c1N1CCN(Cc2cscn2)CC1` [Example 160, 4-(4-(6-Bromo-7-(4-(thiazol-4-ylmethyl)piperazin-1-yl)-3H-imidazo[4,5-b]pyridin-2-yl)benzyl)morpholine], the IC50 (HCT116 cells) was less than 500 nM and the IC50 (Aurora-A; Flashplate assay, IC50 range) was less than 500 nM.

`CC(C)(C)OC(=O)NCc1nc2c(N3CCN(Cc4cccnc4)CC3)c(Br)cnc2[nH]1` [Example 99, tert-Butyl (6-bromo-7-(4-(pyridin-3-ylmethyl)piperazin-1-yl)-3H-imidazo[4,5-b]pyridin-2-yl)methylcarbamate] was tested, and the IC50 (HCT116 cells) was 2000 to 50000 nM and the IC50 (Aurora-A; Flashplate assay, IC50 range) was 2000 to 10000 nM.

Molecule `COc1ccc(-c2nc3c(N4CCN(Cc5ccc(C(F)(F)F)nc5)CC4)c(Br)cnc3[nH]2)cc1` [Example 124, 6-Bromo-2-(4-methoxyphenyl)-7-(4-((6-(trifluoromethyl)pyridin-3-yl)methyl)piperazin-1-yl)-3H-imidazo[4,5-b]pyridine] has an IC50 (HCT116 cells) of 500 to 2000 nM and an IC50 (Aurora-A; Flashplate assay, IC50 range) of less than 500 nM.

`COc1ccc(-c2nc3c(N4CCN(Cc5cscn5)CC4)c(Br)cnc3[nH]2)cc1` [Example 154, 4-((4-(6-Bromo-2-(4-methoxyphenyl)-3H-imidazo[4,5-b]pyridin-7-yl)piperazin-1-yl)methyl)thiazole] was tested, and the IC50 (HCT116 cells) was less than 500 nM and the IC50 (Aurora-A) was less than 500 nM.

With `Cc1nc(CN2CCN(c3c(Cl)cnc4[nH]c(-c5ccc(CN6CCNCC6)cc5)nc34)CC2)cs1` [Example 175, 4-((4-(6-Chloro-2-(4-(piperazin-1-ylmethyl)phenyl)-3H-imidazo[4,5-b]pyridin-7-yl)piperazin-1-yl)methyl)-2-methylthiazole] the IC50 (HCT116 cells) was less than 500 nM and the IC50 (Aurora-A; Flashplate assay, IC50 range) was less than 500 nM.

`CC(C)(C)OC(=O)NCc1cccc(-c2nc3c(N4CCN(CC(=O)Nc5nccs5)CC4)c(Br)cnc3[nH]2)c1` [Example 11, (3-{6-Bromo-7-[4-(thiazol-2-ylcarbamoylmethyl)-piperazin-1-yl]-3H-imidazo[4,5-b]pyridin-2-yl}-benzyl)-carbamic acid tert-butyl ester] showed an IC50 (HCT116 cells) of 500 to 2000 nM and an IC50 (Aurora-A; Flashplate assay, IC50 range) of less than 500 nM.

`CN(C)c1ccc(-c2nc3c(N4CCN(C(=O)Nc5nccs5)CC4)c(Br)cnc3[nH]2)cc1` [Example 42, 4-(6-Bromo-2-(4-(dimethylamino)phenyl)-3H-imidazo[4,5-b]pyridin-7-yl)-N-(thiazol-2-yl)piperazine-1-carboxamide] was tested, and the IC50 (HCT116 cells) was 2000 to 50000 nM and the IC50 (Aurora-A; Flashplate assay, IC50 range) was less than 500 nM.

In the case of `Cn1cncc1CN1CCN(c2c(Br)cnc3[nH]c(-c4ccc(CN5CCNCC5)cc4)nc23)CC1` [Example 181, 6-bromo-7-(4-((1-methyl-1H-imidazol-5-yl)methyl)piperazin-1-yl)-2-(4-(piperazin-1-ylmethyl)phenyl)-3H-imidazo[4,5-b]pyridine], the IC50 (HCT116 cells) is reported as 2000 to 50000 nM and the IC50 (Aurora-A; Flashplate assay, IC50 range) is reported as less than 500 nM.

In the case of `CN(C)c1ccc(-c2nc3c(N4CCC(CC(=O)Nc5nccs5)CC4)c(Br)cnc3[nH]2)cc1` [Example 90, 2-{1-[6-Bromo-2-(4-dimethylamino-phenyl)-3H-imidazo[4,5-b]pyridin-7-yl]-piperidin-4-yl}-N-thiazol-2-yl-acetamide], the IC50 (HCT116 cells) is reported as 500 to 2000 nM and the IC50 (Aurora-A; Flashplate assay, IC50 range) is reported as less than 500 nM.

In the case of `CN(C)c1ccc(-c2nc3c(N4CCN(CC(=O)Nc5ccccc5)CC4)c(Cl)cnc3[nH]2)cc1` [Example 22, 2-(4-(6-Chloro-2-(4-(dimethylamino)phenyl)-3H-imidazo[4,5-b]pyridin-7-yl)piperazin-1-yl)-N-phenylacetamide], the IC50 (HCT116 cells) is reported as 2000 to 50000 nM and the IC50 (Aurora-A; Flashplate assay, IC50 range) is reported as less than 500 nM.

Molecule `Cc1nc(CN2CCN(c3c(Cl)cnc4[nH]c(-c5ccc(CN6CCOCC6)cc5)nc34)CC2)cs1` [Example 172, 4-(4-(6-Chloro-7-(4-((2-methylthiazol-4-yl)methyl)piperazin-1-yl)-3H-imidazo[4,5-b]pyridin-2-yl)benzyl)morpholine] has an IC50 (HCT116 cells) of 500 to 2000 nM and an IC50 (Aurora-A; Flashplate assay, IC50 range) of less than 500 nM.
